Measured values taken from patent US20260347319A1, “YAP/TAZ-TEAD ONCOPROTEINS INHIBITORS” (BridGene Biosciences, Inc., priority 2022, published 2026).

Tested on: TEAD1
Assay: MCF-7 TEAD1-luciferase reporter assay (MCF7-TEAD-Luc)
Format: cell-based
Conditions: MCF7 cells, overnight; for IC50: Homo sapiens; for TEAD1-Luc MCF7: Max Inhibition: % of DMSO-treated control
Experimental: The ability of compounds to inhibit TEAD-dependent transcription was assessed in the MCF7-TEAD-Luc reporter assay (BPS #60618). Cells were seeded at 10,000 cells in 200 μL per well into white wall, clear bottom 96-well plates (Corning #3610) and incubated at 37° C. for 24 hours, then treated with serial diluted compounds overnight, and luciferase signal was measured using the ONE-Step Luciferase Assay System (BPS #60690) using an EnSight Multimode plate reader (PerkinElmer, model #MLDHH34000000, integration time 100 ms) with Kaleido 3.0. software. For data analysis, dose-dependent curves were plotted as “% inhibition” (% of DMSO-treated control wells), and were fitted by four-parametric model in GraphPad Prism to obtain IC50 values.

SMILES: C=CC(=O)N1CCC(/C=C/C(OC)c2ccc(C(F)(F)F)cc2)C1 (stereo not shown) [Example 102, (E)-1-(3-(3-methoxy-3-(4-(trifluoromethyl)phenyl)prop-1-en-1-yl)pyrrolidin-1-yl)prop-2-en-1-one]
- IC50: 10 to 100 nM
- TEAD1-Luc MCF7: Max Inhibition: C (50% > C ≥ 2%)

SMILES: C=CC(=O)N1CC(/C=C/c2ccc(C(F)(F)F)cc2OC)C1 [Example 19, 1-(3-(2-methoxy-4-(trifluoromethyl)styryl)azetidin-1-yl)prop-2-en-1-one]
- IC50: 10 to 100 nM
- TEAD1-Luc MCF7: Max Inhibition: C (50% > C ≥ 2%)

SMILES: C=CC(=O)N1CC[C@](C)(/C=C/c2ccc(C(F)(F)F)cc2)C1 (single isomer, unassigned) [Example 30, 1-[(3R*)-3-methyl-3-{2-[4-(trifluoromethyl)phenyl]ethenyl}pyrrolidin-1-yl]prop-2-en-1-one]
- IC50: 10 to 100 nM
- TEAD1-Luc MCF7: Max Inhibition: A (A ≥ 75%)

SMILES: C=CC(=O)N1C[C@@H](CC)[C@H](/C=C\c2ccc(C(F)(F)F)cc2)C1 [Example 31, 1-{3-ethyl-4-[(Z)-2-[4-(trifluoromethyl)phenyl]ethenyl]pyrrolidin-1-yl}prop-2-en-1-one]
- IC50: 100 to 500 nM
- TEAD1-Luc MCF7: Max Inhibition: A (A ≥ 75%)

SMILES: C=C(F)C(=O)N1CC[C@@H](/C=C/c2ccc(C(F)(F)F)cc2)C1 (single isomer, unassigned) [Example 68]
- IC50: 100 to 500 nM
- TEAD1-Luc MCF7: Max Inhibition: B (75% > B ≥ 50%)

SMILES: C=CC(=O)N1CC[C@H](/C=C\c2cccc(C(F)(F)F)c2)C1 (single isomer, unassigned) [Example 42, (R*,Z)-1-(3-(3-(trifluoromethyl)styryl)pyrrolidin-1-yl)prop-2-en-1-one]
- IC50: 100 to 500 nM
- TEAD1-Luc MCF7: Max Inhibition: A (A ≥ 75%)

SMILES: C=CC(=O)N1CC(c2cc3ccc(C(F)(F)F)cc3[nH]2)C1 [Example 52, 1-{3-[6-(trifluoromethyl)-1H-indol-2-yl]azetidin-1-yl}prop-2-en-1-one]
- IC50: 10 to 100 nM
- TEAD1-Luc MCF7: Max Inhibition: A (A ≥ 75%)

SMILES: C=CC(=O)N1CC2(C=C(c3ccc(C(F)(F)F)cc3)CC2)C1 [Example 47, 1-(6-(4-(trifluoromethyl)phenyl)-2-azaspiro[3.4]oct-5-en-2-yl)prop-2-en-1-one]
- IC50: ≤ 10 nM
- TEAD1-Luc MCF7: Max Inhibition: C (50% > C ≥ 2%)

SMILES: C=CC(=O)N1CC2(CC(/C=C\c3cc(C(F)(F)F)on3)C2)C1 [Example 23, 1-{6-[(Z)-2-[5-(trifluoromethyl)-1,2-oxazol-3-yl]ethenyl]-2-azaspiro[3.3]heptan-2-yl}prop-2-en-1-one]
- IC50: 10 to 100 nM
- TEAD1-Luc MCF7: Max Inhibition: B (75% > B ≥ 50%)

SMILES: C=CC(=O)N1CCC2(C=C(c3ccc(C(F)(F)F)cc3)OC2)C1 (stereo not shown) [Example 105, 1-(3-(4-(trifluoromethyl)phenyl)-2-oxa-7-azaspiro[4.4]non-3-en-7-yl)prop-2-en-1-one]
- IC50: 10 to 100 nM
- TEAD1-Luc MCF7: Max Inhibition: A (A ≥ 75%)

SMILES: C=CC(=O)N1CC(F)(/C=C/c2cc(C(F)(F)F)on2)C1 [Example 7, (E)-1-(3-fluoro-3-(2-(5-(trifluoromethyl)isoxazol-3-yl)vinyl)azetidin-1-yl)prop-2-en-1-one]
- IC50: ≤ 10 nM
- TEAD1-Luc MCF7: Max Inhibition: A (A ≥ 75%)

SMILES: C=CC(=O)N1C[C@@H](CC)[C@H](/C=C/c2ccc(C(F)(F)F)cc2)C1 [Example 32, 1-{3-ethyl-4-[(E)-2-[4-(trifluoromethyl)phenyl]ethenyl]pyrrolidin-1-yl}prop-2-en-1-one]
- IC50: 100 to 500 nM
- TEAD1-Luc MCF7: Max Inhibition: A (A ≥ 75%)

SMILES: C=CC(=O)N1CCC(F)(C#Cc2ccc(C(F)(F)F)cc2)CC1 [Example 72, 1-(4-fluoro-4-((4-(trifluoromethyl)phenyl)ethynyl)piperidin-1-yl)prop-2-en-1-one]
- IC50: 10 to 100 nM
- TEAD1-Luc MCF7: Max Inhibition: B (75% > B ≥ 50%)

SMILES: C#CC(=O)N1CC[C@H](/C=C/c2ccc(C(F)(F)F)cc2)C1 [Example 82, (R, E)-1-(3-(4-(trifluoromethyl)styryl)pyrrolidin-1-yl)prop-2-yn-1-one]
- IC50: 10 to 100 nM
- TEAD1-Luc MCF7: Max Inhibition: A (A ≥ 75%)

SMILES: C=C(F)C(=O)N1CC[C@H](/C=C/c2ccc(C(F)(F)F)cc2)C1 (single isomer, unassigned) [Example 69]
- IC50: 100 to 500 nM
- TEAD1-Luc MCF7: Max Inhibition: B (75% > B ≥ 50%)

SMILES: C=CC(=O)N1CCC(/C=C/C(C)(C)c2ccc(C(F)(F)F)cc2)C1 (single isomer, unassigned) [Example 92, (E)-1-(3-(3-methyl-3-(4-(trifluoromethyl)phenyl)but-1-en-1-yl)pyrrolidin-1-yl)prop-2-en-1-one]
- IC50: > 500 nM
- TEAD1-Luc MCF7: Max Inhibition: B (75% > B ≥ 50%)

SMILES: C=CC(=O)N1CC[C@](O)(/C=C/c2ccc(C(F)(F)F)cc2)C1 (single isomer, unassigned) [Example 27, (S*,E)-1-(3-hydroxy-3-(4-(trifluoromethyl)styryl)pyrrolidin-1-yl)prop-2-en-1-one]
- IC50: 100 to 500 nM
- TEAD1-Luc MCF7: Max Inhibition: A (A ≥ 75%)

SMILES: C=CC(=O)N1CC(/C=C/c2ccc(C(F)(F)F)c(OC)c2)C1 [Example 3, 1-{3-[(E)-2-[3-methoxy-4-(trifluoromethyl)phenyl]ethenyl]azetidin-1-yl}prop-2-en-1-one]
- IC50: ≤ 10 nM
- TEAD1-Luc MCF7: Max Inhibition: B (75% > B ≥ 50%)

SMILES: C=CC(=O)N1CC2(CC(/C=C/c3cc(C(F)(F)F)on3)C2)C1 [Example 22, 1-{6-[(E)-2-[5-(trifluoromethyl)-1,2-oxazol-3-yl]ethenyl]-2-azaspiro[3.3]heptan-2-yl}prop-2-en-1-one]
- IC50: 10 to 100 nM
- TEAD1-Luc MCF7: Max Inhibition: B (75% > B ≥ 50%)

SMILES: C=CC(=O)N1CC[C@@H](C#Cc2cccc(C(F)(F)F)c2)C1 (single isomer, unassigned) [Example 57, (S*)-1-(3-((3-(trifluoromethyl)phenyl)ethynyl)pyrrolidin-1-yl)prop-2-en-1-one]
- IC50: 10 to 100 nM
- TEAD1-Luc MCF7: Max Inhibition: A (A ≥ 75%)

SMILES: C=CC(=O)N1CCC(C#Cc2ccc(C(F)(F)F)cc2)(OC)CC1 [Example 71, 1-(4-methoxy-4-((4-(trifluoromethyl)phenyl)ethynyl)piperidin-1-yl)prop-2-en-1-one]
- IC50: 10 to 100 nM
- TEAD1-Luc MCF7: Max Inhibition: B (75% > B ≥ 50%)

SMILES: C=CC(=O)N1C[C@H](Nc2ncccn2)[C@@H](/C=C/c2ccc(C(F)(F)F)cc2)C1 (single isomer, unassigned) [Example 84]
- IC50: 10 to 100 nM
- TEAD1-Luc MCF7: Max Inhibition: A (A ≥ 75%)

SMILES: C=CC(=O)N1CC[C@H](/C=C/Cc2ccc(C(F)(F)F)cc2)C1 (single isomer, unassigned) [Example 94]
- IC50: 10 to 100 nM
- TEAD1-Luc MCF7: Max Inhibition: B (75% > B ≥ 50%)

SMILES: C=CC(=O)N1CC(C)(/C=C/c2ccc(C(F)(F)F)cc2)C1 [Example 18]
- IC50: ≤ 10 nM
- TEAD1-Luc MCF7: Max Inhibition: A (A ≥ 75%)

SMILES: C=CC(=O)N1CCC(/C=C/C(O)c2ccc(C(F)(F)F)cc2)C1 (stereo not shown) [Example 99, (E)-1-(3-(3-hydroxy-3-(4-(trifluoromethyl)phenyl)prop-1-en-1-yl)pyrrolidin-1-yl)prop-2-en-1-one]
- IC50: 10 to 100 nM
- TEAD1-Luc MCF7: Max Inhibition: B (75% > B ≥ 50%)

SMILES: C=CC(=O)N1CC(c2cc3cc(C(F)(F)F)ccn3n2)C1 [Example 50, 1-(3-(5-(trifluoromethyl)pyrazolo[1,5-a]pyridin-2-yl)azetidin-1-yl)prop-2-en-1-one]
- IC50: ≤ 10 nM
- TEAD1-Luc MCF7: Max Inhibition: B (75% > B ≥ 50%)

SMILES: C=CC(=O)N1CC[C@](O)(C#Cc2ccc(C(F)(F)F)cc2)C1 (single isomer, unassigned) [Example 64, (S*)-1-(3-hydroxy-3-((4-(trifluoromethyl)phenyl)ethynyl)pyrrolidin-1-yl)prop-2-en-1-one]
- IC50: 10 to 100 nM
- TEAD1-Luc MCF7: Max Inhibition: A (A ≥ 75%)

SMILES: C=CC(=O)N1CC[C@H](C(C)(C)/C=C/c2ccc(C(F)(F)F)cc2)C1 [Example 86, (R, E)-1-(3-(2-methyl-4-(4-(trifluoromethyl)phenyl)but-3-en-2-yl)pyrrolidin-1-yl)prop-2-en-1-one]
- IC50: 10 to 100 nM
- TEAD1-Luc MCF7: Max Inhibition: B (75% > B ≥ 50%)

SMILES: C=CC(=O)N1CC2(CC(/C=C/c3ccc(C(F)(F)F)cc3)C2)C1 [Example 20]
- IC50: 100 to 500 nM
- TEAD1-Luc MCF7: Max Inhibition: B (75% > B ≥ 50%)

SMILES: C=CC(=O)N1CC[C@@H](/C=C/c2cccc(C(F)(F)F)c2)C1 (single isomer, unassigned) [Example 44, (S*,E)-1-(3-(3-(trifluoromethyl)styryl)pyrrolidin-1-yl)prop-2-en-1-one]
- IC50: 10 to 100 nM
- TEAD1-Luc MCF7: Max Inhibition: A (A ≥ 75%)

SMILES: CC#CC(=O)N1CC[C@H](/C=C/c2ccc(C(F)(F)F)cc2)C1 [Example 81, (R,E)-1-(3-(4-(trifluoromethyl)styryl)pyrrolidin-1-yl)but-2-yn-1-one]
- IC50: 100 to 500 nM
- TEAD1-Luc MCF7: Max Inhibition: B (75% > B ≥ 50%)

SMILES: C=CC(=O)N1CCC(O)(C#Cc2ccc(C(F)(F)F)cc2)CC1 [Example 73, 1-(4-hydroxy-4-((4-(trifluoromethyl)phenyl)ethynyl)piperidin-1-yl)prop-2-en-1-one]
- IC50: 10 to 100 nM
- TEAD1-Luc MCF7: Max Inhibition: A (A ≥ 75%)

SMILES: C=CC(=O)N1CC(c2cc3ccc(C(F)(F)F)cn3n2)C1 [Example 51, 1-(3-(6-(trifluoromethyl)pyrazolo[1,5-a]pyridin-2-yl)azetidin-1-yl)prop-2-en-1-one]
- IC50: 10 to 100 nM
- TEAD1-Luc MCF7: Max Inhibition: B (75% > B ≥ 50%)

SMILES: CC#CC(=O)N1CC(/C=C/c2ccc(C(F)(F)F)cc2)C1 [Example 77, (E)-1-(3-(4-(trifluoromethyl)styryl)azetidin-1-yl)but-2-yn-1-one]
- IC50: 10 to 100 nM
- TEAD1-Luc MCF7: Max Inhibition: B (75% > B ≥ 50%)

SMILES: C=CC(=O)N1CC[C@H]([C@H](O)/C=C/c2ccc(C(F)(F)F)cc2)C1 (single isomer, unassigned) [Example 104]
- IC50: 100 to 500 nM
- TEAD1-Luc MCF7: Max Inhibition: B (75% > B ≥ 50%)
